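Test compounds were applied to cells in 96-well plates for 48 hours at 5 doses. The concentration for 50% growth inhibition is given as GI50. Definition used: TGI = concentration required for complete inhibition of growth.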
Key:
Assay in all cases: NCI anticancer screen, dose series, 48 h
[1] = tested on: CAKI-1 renal
[2] = tested on: M14 melanoma
[3] = tested on: NCI-H23 lung
[4] = tested on: NCI/ADR-RES ovarian
[5] = tested on: OVCAR-3 ovarian
[6] = tested on: OVCAR-5 ovarian
[7] = tested on: OVCAR-8 ovarian
[8] = tested on: SK-MEL-28 melanoma
[9] = tested on: U251 CNS
[10] = tested on: UACC-62 melanoma

Structure (SMILES) | TGI [1] [µM] | TGI [2] [µM] | GI50 [3] [nM] | TGI [3] [µM] | GI50 [4] [nM] | TGI [4] [µM] | GI50 [5] [nM] | TGI [5] [µM] | GI50 [6] [nM] | TGI [6] [µM] | GI50 [7] [nM] | TGI [7] [µM] | GI50 [8] [µM] | TGI [8] [µM] | GI50 [9] [nM] | TGI [9] [µM] | GI50 [10] [nM] | TGI [10] [µM] | GI50 [1] [µM] | GI50 [2] [nM]
C[C@@H]1CC[C@@]2(OC1)O[C@H]1C[C@H]3[C@@H]4CC=C5C[C@@H](O[C@@H]6O[C@H](CO)[C@@H](O[C@@H]7O[C@@H](CO)[C@H](O)[C@H]7O)[C@H](O)[C@H]6O[C@@H]6O[C@@H](C)[C@H](O)[C@@H](O)[C@H]6O)CC[C@]5(C)[C@H]4CC[C@]3(C)[C@H]1[C@@H]2C | 2.05 | 2.07 | 1580 | 2.97 | 1430 | 2.78 | 1750 | 3.12 | 1290 | 2.56 | 657 | 1.96 | 1.2 | 2.44 | 1010 | 2.17 | 909 | 2.11 | – | –
CC1OC(O)C(O)C(O)C1O (stereo not drawn) | > 100 | > 100 | – | > 100 | – | > 100 | – | > 100 | – | > 100 | – | > 100 | – | > 100 | – | > 100 | – | > 100 | – | –
COc1ccc(/C=C(\C#N)c2cc3ccccc3n2C)cc1 | > 100 | > 100 | 645 | > 100 | 319 | > 28.7 | 336 | 3.19 | 852 | > 100 | 560 | > 100 | 4.52 | > 100 | 493 | > 100 | 504 | > 100 | 0.437 | 308
O=C(/C=C/c1ccco1)Nc1ncc(Cc2ccc(F)cc2)s1 | > 100 | > 100 | 234 | > 100 | 44.5 | 4.02 | 33.6 | 0.141 | 244 | > 100 | 152 | > 100 | 3.5 | > 100 | 61.5 | > 100 | 55.5 | > 100 | 0.0525 | 36
O=C1/C(=C/c2cccs2)CCC/C1=C\c1cccs1 | > 100 | > 100 | > 83800 | > 100 | 50900 | > 100 | 23800 | > 100 | > 100000 | > 100 | 51600 | > 100 | > 72.2 | > 100 | 30600 | > 100 | > 54300 | > 100 | 55.8 | > 100000
CC[C@H](C)[C@H](NC(=O)C12C3C4C1C1C2C3C41NC(C)=O)C(=O)N(C)[C@H](C[C@@H](OC(C)=O)c1nc(C(=O)N[C@@H](Cc2ccccc2)C[C@H](C)C(=O)OC)cs1)C(C)C (stereo partly drawn) | > 14.3 | 2.25 | 884 | > 14.3 | > 14300 | > 14.3 | 56.5 | 1.08 | 3970 | > 14.3 | 614 | > 14.3 | > 3.7 | > 14.3 | 434 | > 14.3 | 112 | > 14.3 | > 10.8 | 259
COc1ccc(/C=C2\N=C3SC=C(N)N3C2=O)cc1 | 7.01 | 4.73 | 1670 | 8.47 | 2760 | 18.6 | 1140 | 2.98 | 2130 | 12 | 1440 | 10.4 | 1.29 | 4.75 | 1320 | 5.49 | 1070 | 2.76 | 1.32 | 1210
COc1ccc2c3c(c(OCCCN(C)C)nc2c1)-c1ccc(Cl)cc1C3=O | 23.6 | 24.2 | 11000 | 25.3 | 4790 | 26 | 3550 | 16.7 | 9660 | 22.9 | 5980 | 34.6 | 12.1 | 27 | 4740 | 16.6 | 10700 | 23.6 | 11.4 | 11400
Cn1c(=O)c2[nH]c(COc3ccc(C(C)(C)C)cc3)nc2n(C)c1=O | > 100 | 41.4 | 5290 | > 100 | 8040 | 60.6 | 12300 | 33.6 | 24200 | > 100 | 18300 | 67.1 | 28.8 | > 100 | 37500 | > 100 | 5560 | 72.4 | 12 | 15000

Source: PubChem BioAssay (NCI)
